As a reminder, the IC50 is the midpoint of a concentration-inhibition curve. A high value points to weaker potency.

Results on 37 compounds are retold here after US12084420B2, “Indoline compounds for inhibiting KIF18A” (Volastra Therapeutics, Inc., priority 2021, dated 2024).

Sequence of hKIF18A (1-374) (Q8NI77 whole entry, looked up): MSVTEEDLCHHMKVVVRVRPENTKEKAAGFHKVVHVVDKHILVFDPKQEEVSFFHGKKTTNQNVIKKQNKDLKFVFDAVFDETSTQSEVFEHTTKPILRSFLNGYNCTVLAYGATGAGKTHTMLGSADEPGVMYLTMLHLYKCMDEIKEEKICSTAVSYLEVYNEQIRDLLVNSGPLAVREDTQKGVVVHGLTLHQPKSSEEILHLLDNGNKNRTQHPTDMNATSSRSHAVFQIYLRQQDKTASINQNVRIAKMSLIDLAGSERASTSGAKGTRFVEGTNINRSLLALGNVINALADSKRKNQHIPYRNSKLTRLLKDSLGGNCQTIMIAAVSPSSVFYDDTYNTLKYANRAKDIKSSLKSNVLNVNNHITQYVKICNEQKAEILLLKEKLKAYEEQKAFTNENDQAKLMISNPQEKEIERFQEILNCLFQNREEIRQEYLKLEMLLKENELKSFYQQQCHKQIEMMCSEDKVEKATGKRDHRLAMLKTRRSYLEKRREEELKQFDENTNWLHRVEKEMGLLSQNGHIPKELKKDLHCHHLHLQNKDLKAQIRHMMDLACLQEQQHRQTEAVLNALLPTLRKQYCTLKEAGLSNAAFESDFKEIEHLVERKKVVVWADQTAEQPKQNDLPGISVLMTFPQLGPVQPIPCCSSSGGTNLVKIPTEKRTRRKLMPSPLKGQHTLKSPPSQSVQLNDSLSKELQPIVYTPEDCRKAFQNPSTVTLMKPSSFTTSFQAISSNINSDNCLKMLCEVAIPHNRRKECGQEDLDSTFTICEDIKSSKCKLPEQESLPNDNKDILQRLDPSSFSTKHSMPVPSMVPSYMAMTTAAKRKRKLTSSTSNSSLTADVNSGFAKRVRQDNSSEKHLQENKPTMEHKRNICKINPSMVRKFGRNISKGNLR
Sequence of hKIF18A (1-374) (Q2XVP4 whole entry partner, looked up): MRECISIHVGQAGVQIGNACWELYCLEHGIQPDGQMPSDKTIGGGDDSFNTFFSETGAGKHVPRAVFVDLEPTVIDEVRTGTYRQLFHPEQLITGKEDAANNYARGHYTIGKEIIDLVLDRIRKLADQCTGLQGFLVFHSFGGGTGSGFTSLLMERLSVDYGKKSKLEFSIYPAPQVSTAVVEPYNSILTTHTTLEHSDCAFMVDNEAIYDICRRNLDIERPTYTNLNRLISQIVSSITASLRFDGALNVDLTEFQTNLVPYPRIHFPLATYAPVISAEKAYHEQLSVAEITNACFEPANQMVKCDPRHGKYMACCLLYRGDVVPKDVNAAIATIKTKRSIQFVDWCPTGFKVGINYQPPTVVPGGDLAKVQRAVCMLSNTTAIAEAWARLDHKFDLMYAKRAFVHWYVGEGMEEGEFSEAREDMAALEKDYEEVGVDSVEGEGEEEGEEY
Sequence of hKIF18A (1-374) (P02554 whole entry partner, looked up): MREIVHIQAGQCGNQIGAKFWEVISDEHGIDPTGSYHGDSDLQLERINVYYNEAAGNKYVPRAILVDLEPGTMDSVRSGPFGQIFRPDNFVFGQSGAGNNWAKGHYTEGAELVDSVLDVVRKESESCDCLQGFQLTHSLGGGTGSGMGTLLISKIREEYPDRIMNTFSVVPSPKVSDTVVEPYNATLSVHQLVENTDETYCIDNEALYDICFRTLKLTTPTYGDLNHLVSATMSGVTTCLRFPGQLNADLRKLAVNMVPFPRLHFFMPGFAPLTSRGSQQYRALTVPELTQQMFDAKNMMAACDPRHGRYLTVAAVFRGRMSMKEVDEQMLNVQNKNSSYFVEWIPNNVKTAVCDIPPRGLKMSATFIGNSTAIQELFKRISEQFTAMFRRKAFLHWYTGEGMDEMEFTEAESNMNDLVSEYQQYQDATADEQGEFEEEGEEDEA

One experiment has as its target hKIF18A (1-374) (Homo sapiens (Human), UniProt Q8NI77). The experiment is described as follows: Inhibition of KIF18A microtubule-dependent ATPase activity (ADP-Glo).
Conditions: not given
(ADP-Glo turns the ADP formed in a reaction into a luminescent signal.)
`C[C@@H]1CCN(S(=O)(=O)c2cccc(C(=O)N3CC4(CCC5(CC5)CC4)c4cc(NS(C)(=O)=O)ccc43)c2)C1` [(R)-Compound 249, (R)-N-(1″-(3-((3-methylpyrrolidin-1-yl)sulfonyl)benzoyl)dispiro[cyclopropane-1,1′-cyclohexane-4′,3″-indolin]-5″- yl)methanesulfonamide] yielded an IC50 of 11 nM. In other words, the double-digit nanomolar range.

Compound `C[C@H]1CCN(S(=O)(=O)c2cccc(C(=O)N3CC4(CCC5(CC5)CC4)c4cc(NS(C)(=O)=O)ccc43)c2)C1` [(S)-Compound 249, (S)-N-(1″-(3-((3-methylpyrrolidin-1-yl)sulfonyl)benzoyl)dispiro[cyclopropane-1,1′-cyclohexane-4′,3″-indolin]-5″- yl)methanesulfonamide] registered a half-inhibitory concentration (IC50) of 16 nM.

`CC1CCC2(CC1)CN(C(=O)c1cccc(S(=O)(=O)N3CCC(F)(F)CC3)c1)c1ccc(Br)cc12` (centres unmarked) [Compound 15, (5′-bromo-4-methylspiro[cyclohexane-1,3′-indolin]-1′-yl)(3-((4,4-difluoropiperidin-1-yl)sulfonyl)phenyl)methanone]: the IC50 was 740 nM.

Still in this experiment, the particulars now being: KIF18A microtubule-dependent ATPase activity, biochemical assay.
With `CS(=O)(=O)Nc1ccc2c(c1)C1(CCC3(CC3)CC1)CN2C(=O)c1cccc(S(=N)(=O)C2CCCC2)c1` (single isomer, unassigned) [Compound 287a], the concentration for half-maximal inhibition (IC50) was determined as 34 nM.

In the case of `CS(=O)(=O)Nc1ccc2c(c1)C1(CCC3(CC3)CC1)CN2C(=O)c1cccc([C@@H](O)C2CCC2)c1` (single isomer, unassigned) [Compound 313a], the IC50 amounted to 19 nM.

In the case of `CS(=O)(=O)Nc1ccc2c(c1)C1(CCC3(CC3)CC1)CN2C(=O)c1cccc([C@H](O)C2CCC2)c1` (single isomer, unassigned) [Compound 313b], the 50% inhibitory concentration (IC50) was determined as 15 nM.

On to `CS(=O)(=O)Nc1ccc2c(c1)C1(CCC3(CC3)CC1)CN2C(=O)c1ccnc([C@@H](O)C2CCCC2)c1` (single isomer, unassigned) [Compound 316a], for which 21 nM corresponded to half-maximal inhibition (IC50). The IC50 values of the last two compounds are within 1.5-fold of each other.

As to `CS(=O)(=O)Nc1ccc2c(c1)C1(CCC3(CC3)CC1)CN2C(=O)c1ccnc([C@H](O)C2CCCC2)c1` (single isomer, unassigned) [Compound 316b], half-maximal inhibition (IC50) was put at 16 nM.

Regarding `CC(C)(C)NS(=O)(=O)c1cccc(C(=O)N2CC3(CCC4(CC4)CC3)c3cc(C(O)C(F)(F)F)ccc32)c1` (single isomer, unassigned) [Compound 338a], the concentration for half-maximal inhibition (IC50) stood at 48 nM.

`CC(C)(C)NS(=O)(=O)c1cccc(C(=O)N2CC3(CCC4(CC4)CC3)c3cc(C(O)C(F)(F)F)ccc32)c1` (single isomer, unassigned) [Compound 338b] displayed an IC50 of 83 nM.

Compound `C[C@@H](c1cccc(C(=O)N2CC3(CCC4(CC4)CC3)c3cc(NS(C)(=O)=O)ccc32)c1)N1CCC(F)(F)CC1` (single isomer, unassigned) [Compound 341a] had an IC50 of 30 nM.

The compound `C[C@H](c1cccc(C(=O)N2CC3(CCC4(CC4)CC3)c3cc(NS(C)(=O)=O)ccc32)c1)N1CCC(F)(F)CC1` (single isomer, unassigned) [Compound 341b] gave an IC50 of 24 nM.

For the compound `CCS(=O)(=O)Nc1ccc2c(c1)C1(CCC3(CC3)CC1)CN2C(=O)c1ccc(C(O)C2CCCC2)o1` (single isomer, unassigned) [Compound 367a], the concentration for half-maximal inhibition (IC50) stood at 3.9 nM.

With `CCS(=O)(=O)Nc1ccc2c(c1)C1(CCC3(CC3)CC1)CN2C(=O)c1ccc(C(O)C2CCCC2)o1` (single isomer, unassigned) [Compound 367b], it took 4.8 nM to reach half-maximal inhibition (IC50).

As for `O=C(c1ccc(C(O)C2CCCC2)o1)N1CC2(CCC3(CC3)CC2)c2cc(NS(=O)(=O)CCO)ccc21` (single isomer, unassigned) [Compound 368a], the half-maximal inhibitory concentration (IC50) was 3 nM.

`O=C(c1ccc(C(O)C2CCCC2)o1)N1CC2(CCC3(CC3)CC2)c2cc(NS(=O)(=O)CCO)ccc21` (single isomer, unassigned) [Compound 368b] had an IC50 of 3.5 nM.

With `CC(C)(C)[C@@H](O)c1ccc(C(=O)N2CC3(CCC4(CC4)CC3)c3cc(NS(=O)(=O)CCO)ccc32)o1` (single isomer, unassigned) [Compound 371a], the IC50 turned out to be 30 nM.

The compound `CC(C)(C)[C@H](O)c1ccc(C(=O)N2CC3(CCC4(CC4)CC3)c3cc(NS(=O)(=O)CCO)ccc32)o1` (single isomer, unassigned) [Compound 371b] gave a 50% inhibitory concentration (IC50) of 40 nM.

Compound `CCS(=O)(=O)Nc1ccc2c(c1)C1(CCC3(CC3)CC1)CN2C(=O)c1ccc([C@H](O)C(C)(C)C)o1` (single isomer, unassigned) [Compound 372a] returned an IC50 of 37 nM.

Turning to `CCS(=O)(=O)Nc1ccc2c(c1)C1(CCC3(CC3)CC1)CN2C(=O)c1ccc([C@@H](O)C(C)(C)C)o1` (single isomer, unassigned) [Compound 372b], the IC50 is 35 nM.

For the compound `CC(C)(C)[C@@H](O)c1ccc(C(=O)N2CC3(CCC4(CC4)CC3)c3cc(NS(C)(=O)=O)ccc32)o1` (single isomer, unassigned) [Compound 373a], the IC50 worked out at 200 nM.

With `CC(C)(C)[C@H](O)c1ccc(C(=O)N2CC3(CCC4(CC4)CC3)c3cc(NS(C)(=O)=O)ccc32)o1` (single isomer, unassigned) [Compound 373b], half-maximal inhibition (IC50) was put at 170 nM.

In the case of `CS(=O)(=O)Nc1ccc2c(c1)C1(CCC3(CC3)CC1)CN2C(=O)c1cccc(S(=O)(=O)N2CC[C@H](F)C2)c1` [(S)-Compound 239, (S)-N-(1″-(3-((3-fluoropyrrolidin-1-yl)sulfonyl)benzoyl)dispiro[cyclopropane-1,1′-cyclohexane-4′,3″-indolin]-5″- yl)methanesulfonamide], 15 nM corresponded to half-maximal inhibition (IC50).

For the compound `O=C(c1cccc(S(=O)(=O)N2CCC(F)(F)CC2)c1)N1CC2(CCCC2)c2c(F)cccc21` [Compound 1, (3-((4,4-difluoropiperidin-1-yl)sulfonyl)phenyl)(4′-fluorospiro[cyclopentane-1,3′-indolin]-1′-yl)methanone], the half-maximal inhibitory concentration (IC50) turned out to be 1600 nM.

Compound `O=C(c1cccc(S(=O)(=O)N2CCCCC2)c1)N1CC2(CCCC2)c2c(F)cccc21` [Compound 1′, (4′-fluorospiro[cyclopentane-1,3′-indolin]-1′-yl)(3-(piperidin-1-ylsulfonyl)phenyl)methanone] gave an IC50 of 2600 nM.

Regarding `O=C(c1cccc(S(=O)(=O)N2CCC(F)(F)CC2)c1)N1CC2(CCCC2)c2ccccc21` [Compound 3, (3-((4,4-difluoropiperidin-1-yl)sulfonyl)phenyl)(spiro[cyclopentane-1,3′-indolin]-1′-yl)methanone], half-maximal inhibition (IC50) required 1600 nM. This IC50 is about 1.6-fold lower than that of the compound before.

Turning to `O=C(c1cccc(S(=O)(=O)N2CCCCC2)c1)N1CC2(CCC3(CC3)CC2)c2ccccc21` [Compound 6, dispiro[cyclopropane-1,1′-cyclohexane-4′,3″-indolin]-1″-yl(3-(piperidin-1-ylsulfonyl)phenyl)methanone], the half-maximal inhibitory concentration (IC50) was found to be 580 nM.

Consider `O=C(c1cccc(S(=O)(=O)N2CCCC2)c1)N1CC2(CCC3(CC3)CC2)c2ccccc21` [Compound 8, dispiro[cyclopropane-1,1′-cyclohexane-4′,3″-indolin]-1″-yl(3-(pyrrolidin-1-ylsulfonyl)phenyl)methanone], for which the half-inhibitory concentration (IC50) came out at 940 nM.

`CC(C)(C)NS(=O)(=O)c1cccc(C(=O)N2CC3(CCC4(CC4)CC3)c3cc(Br)ccc32)c1` [Compound 9, 3-(5″-bromodispiro[cyclopropane-1,1′-cyclohexane-4′,3″-indoline]-1″- carbonyl)-N-(tert-butyl)benzenesulfonamide] came in with a concentration for half-maximal inhibition (IC50) of 1000 nM.

As to `CC1CCC2(CC1)CN(C(=O)c1cccc(S(=O)(=O)N3CCC(F)(F)CC3)c1)c1ccc(Br)cc12` (centres unmarked) [Compound 15, (5′-bromo-4-methylspiro[cyclohexane-1,3′-indolin]-1′-yl)(3-((4,4-difluoropiperidin-1-yl)sulfonyl)phenyl)methanone], 780 nM corresponded to half-maximal inhibition (IC50). The IC50 values of the last two compounds are within 1.5-fold of each other.

Compound `CC1CCC2(C1)CN(C(=O)c1cccc(S(=O)(=O)N3CCC(F)(F)CC3)c1)c1ccc(NS(C)(=O)=O)cc12` (centres unmarked) [Compound 23, N-(1′-(3-((4,4-difluoropiperidin-1-yl)sulfonyl)benzoyl)-3-methylspiro[cyclopentane-1,3′-indolin]-5′-yl)methanesulfonamide] gave an IC50 of 23 nM.

`CS(=O)(=O)Nc1ccc2c(c1)C1(CCCCC1)CN2C(=O)c1cccc(S(=O)(=O)N2CC3CC3C2)c1` (centres unmarked) [Compound 25, N-(1′-(3-((3-azabicyclo[3.1.0]hexan-3-yl)sulfonyl)benzoyl)spiro[cyclohexane-1,3′-indolin]-5′-yl)methanesulfonamide] gave an IC50 of 120 nM.

Compound `CCC1=CCC2(CC1)CN(C(=O)c1cccc(S(=O)(=O)NC(C)(C)C)c1)c1ccc(NS(C)(=O)=O)cc12` (centres unmarked) [Compound 31, N-(tert-butyl)-3-(4-ethyl-5′-(methylsulfonamido)spiro[cyclohexane-1,3′-indolin]-3-en-1′-carbonyl)benzenesulfonamide] had an IC50 of 39 nM. This IC50 lies about 3.1-fold lower than the previous one.

Consider `CCN(c1ccc2c(c1)C1(CCC3(CC3)CC1)CN2C(=O)c1cccc(S(=O)(=O)N2CCC(F)(F)CC2)c1)S(C)(=O)=O` [Compound 32, N-(1″-(3-((4,4-difluoropiperidin-1-yl)sulfonyl)benzoyl)dispiro[cyclopropane-1,1′-cyclohexane-4′,3″-indolin]-5″- yl)-N-ethylmethanesulfonamide], for which the IC50 came out at 78 nM.

In turn, `CN(C)S(=O)(=O)c1cccc(C(=O)N2CC3(CCCCC3)c3cc(NS(C)(=O)=O)ccc32)c1` [Compound 42, N,N-dimethyl-3-(5′-(methylsulfonamido)spiro[cyclohexane-1,3′-indoline]-1′-carbonyl)benzenesulfonamide] returned a half-maximal inhibitory concentration (IC50) of 1300 nM.

In turn, `CS(=O)(=O)Nc1ccc2c(c1)C1(CCCCC1)CN2C(=O)c1cccc(S(=O)(=O)N2CCC2)c1` [Compound 45, N-(1′-(3-(azetidin-1-ylsulfonyl)benzoyl)spiro[cyclohexane-1,3′-indolin]-5′-yl)methanesulfonamide] came in with an IC50 of 270 nM.

In turn, `CS(=O)(=O)Nc1ccc2c(c1)C1(CCCCC1)CN2C(=O)c1cccc(S(=O)(=O)NC2CC2)c1` [Compound 46, N-cyclopropyl-3-(5′-(methylsulfonamido)spiro[cyclohexane-1,3′-indoline]-1′-carbonyl)benzenesulfonamide] registered a concentration for half-maximal inhibition (IC50) of 120 nM.

`CC(C)NS(=O)(=O)c1cccc(C(=O)N2CC3(CCCCC3)c3cc(NS(C)(=O)=O)ccc32)c1` [Compound 48, N-isopropyl-3-(5′-(methylsulfonamido)spiro[cyclohexane-1,3′-indoline]-1′-carbonyl)benzenesulfonamide] returned an IC50 of 100 nM. The IC50 values of the last two compounds are within 1.5-fold of each other.
